Test results reported in ChEMBL document CHEMBL4507270 (2021).
Calls of active or inactive are those of the source. The rule behind the calls is not given here.

Experiments:
[1] = biological target: Serine/threonine-protein kinase tousled-like 2 (Homo sapiens) (UniProt Q86UE8)
[2] = biological target: Serine/threonine-protein kinase LATS1 (Homo sapiens) (UniProt O95835)
[3] = biological target: Mitogen-activated protein kinase 4 (Homo sapiens) (UniProt P31152)
[4] = biological target: Cyclin-dependent kinase 16 (Homo sapiens) (UniProt Q00536)
[5] = biological target: Ephrin type-A receptor 2 (Homo sapiens) (UniProt P29317)
[6] = biological target: RAF proto-oncogene serine/threonine-protein kinase (Homo sapiens) (UniProt P04049)
[7] = biological target: Ribosomal protein S6 kinase alpha-4 (Homo sapiens) (UniProt O75676)
[8] = biological target: TRAF2 and NCK-interacting protein kinase (Homo sapiens) (UniProt Q9UKE5)
[9] = biological target: Phosphatidylinositol 4-kinase beta (Homo sapiens) (UniProt Q9UBF8)
[10] = biological target: Calcium/calmodulin-dependent protein kinase type 1 (Homo sapiens) (UniProt Q14012)
[11] = biological target: Serine/threonine-protein kinase SBK1 (Homo sapiens) (UniProt Q52WX2)
[12] = biological target: Receptor-interacting serine/threonine-protein kinase 4 (Homo sapiens) (UniProt P57078)
Sequence of Receptor-interacting serine/threonine-protein kinase 4 (Homo sapiens) (P57078 whole entry): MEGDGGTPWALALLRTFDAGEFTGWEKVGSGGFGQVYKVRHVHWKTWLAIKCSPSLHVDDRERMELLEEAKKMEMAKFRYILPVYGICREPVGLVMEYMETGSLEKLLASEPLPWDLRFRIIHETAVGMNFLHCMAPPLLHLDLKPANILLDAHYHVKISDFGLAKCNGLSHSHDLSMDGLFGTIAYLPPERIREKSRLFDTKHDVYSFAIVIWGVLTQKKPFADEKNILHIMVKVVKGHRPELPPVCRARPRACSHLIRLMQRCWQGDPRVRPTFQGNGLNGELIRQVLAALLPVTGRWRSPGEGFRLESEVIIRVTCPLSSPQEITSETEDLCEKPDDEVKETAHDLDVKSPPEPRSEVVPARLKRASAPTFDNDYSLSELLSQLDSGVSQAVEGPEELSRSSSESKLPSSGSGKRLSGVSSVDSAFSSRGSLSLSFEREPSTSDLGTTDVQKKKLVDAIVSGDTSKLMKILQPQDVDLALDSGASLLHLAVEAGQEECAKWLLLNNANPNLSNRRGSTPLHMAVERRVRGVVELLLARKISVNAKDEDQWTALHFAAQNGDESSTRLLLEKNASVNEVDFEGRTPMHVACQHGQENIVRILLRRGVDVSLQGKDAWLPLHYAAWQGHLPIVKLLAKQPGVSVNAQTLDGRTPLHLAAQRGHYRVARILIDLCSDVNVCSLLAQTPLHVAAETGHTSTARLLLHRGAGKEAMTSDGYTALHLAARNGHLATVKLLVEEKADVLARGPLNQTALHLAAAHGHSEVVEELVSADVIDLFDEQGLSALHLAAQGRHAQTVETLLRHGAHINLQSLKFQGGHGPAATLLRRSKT

[13] = biological target: Mitogen-activated protein kinase kinase kinase 13 (Homo sapiens) (UniProt O43283)
[14] = biological target: Myosin light chain kinase, smooth muscle (Homo sapiens) (UniProt Q15746)
[15] = biological target: Insulin receptor (Homo sapiens) (UniProt P06213)
[16] = system: Receptor-type tyrosine-protein kinase FLT3 (Homo sapiens), P36888 [UNDEFINED MUTATION]
[17] = biological target: Wee1-like protein kinase 2 (Homo sapiens) (UniProt P0C1S8)
[18] = biological target: Transient receptor potential cation channel subfamily M member 6 (Homo sapiens) (UniProt Q9BX84)
[19] = biological target: 5-hydroxytryptamine receptor 2C (Homo sapiens) (UniProt P28335); settings: Compound concentration 10.0 uM
[20] = biological target: Tyrosine-protein kinase Mer (Homo sapiens) (UniProt Q12866)
[21] = biological target: Megakaryocyte-associated tyrosine-protein kinase (Homo sapiens) (UniProt P42679)
[22] = biological target: Glycogen synthase kinase-3 beta (Homo sapiens) (UniProt P49841)
[23] = biological target: Mitogen-activated protein kinase 11 (Homo sapiens) (UniProt Q15759)
[24] = biological target: Tyrosine-protein kinase JAK1 (Homo sapiens) (UniProt P23458)
[25] = biological target: SRSF protein kinase 1 (Homo sapiens) (UniProt Q96SB4)
[26] = biological target: Cyclin-dependent kinase-like 5 (Homo sapiens) (UniProt O76039)
[27] = biological target: High affinity nerve growth factor receptor (Homo sapiens) (UniProt P04629)
[28] = biological target: NUAK family SNF1-like kinase 2 (Homo sapiens) (UniProt Q9H093)
[29] = biological target: Serine/threonine-protein kinase pim-2 (Homo sapiens) (UniProt Q9P1W9)
Sequence of Serine/threonine-protein kinase pim-2 (Homo sapiens) (Q9P1W9 whole entry, looked up): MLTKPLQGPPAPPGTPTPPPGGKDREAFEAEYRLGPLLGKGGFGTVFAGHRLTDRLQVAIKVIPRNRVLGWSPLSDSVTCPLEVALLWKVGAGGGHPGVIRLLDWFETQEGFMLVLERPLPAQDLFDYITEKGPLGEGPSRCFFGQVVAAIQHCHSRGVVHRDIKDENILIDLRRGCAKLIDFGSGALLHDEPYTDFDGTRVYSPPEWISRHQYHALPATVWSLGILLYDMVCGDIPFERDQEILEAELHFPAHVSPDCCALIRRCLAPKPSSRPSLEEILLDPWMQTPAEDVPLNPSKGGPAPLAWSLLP

[30] = biological target: Protein kinase C iota type (Homo sapiens) (UniProt P41743)
[31] = biological target: Casein kinase I isoform gamma-1 (Homo sapiens) (UniProt Q9HCP0)
[32] = biological target: Aurora kinase B (Homo sapiens) (UniProt Q96GD4)
[33] = biological target: Epithelial discoidin domain-containing receptor 1 (Homo sapiens, UniProt Q08345); experiment: NanoBRET assay (SGC Frankfurt) with DDR1
Sequence of Epithelial discoidin domain-containing receptor 1 (Q08345 whole entry, the tested form may be a part): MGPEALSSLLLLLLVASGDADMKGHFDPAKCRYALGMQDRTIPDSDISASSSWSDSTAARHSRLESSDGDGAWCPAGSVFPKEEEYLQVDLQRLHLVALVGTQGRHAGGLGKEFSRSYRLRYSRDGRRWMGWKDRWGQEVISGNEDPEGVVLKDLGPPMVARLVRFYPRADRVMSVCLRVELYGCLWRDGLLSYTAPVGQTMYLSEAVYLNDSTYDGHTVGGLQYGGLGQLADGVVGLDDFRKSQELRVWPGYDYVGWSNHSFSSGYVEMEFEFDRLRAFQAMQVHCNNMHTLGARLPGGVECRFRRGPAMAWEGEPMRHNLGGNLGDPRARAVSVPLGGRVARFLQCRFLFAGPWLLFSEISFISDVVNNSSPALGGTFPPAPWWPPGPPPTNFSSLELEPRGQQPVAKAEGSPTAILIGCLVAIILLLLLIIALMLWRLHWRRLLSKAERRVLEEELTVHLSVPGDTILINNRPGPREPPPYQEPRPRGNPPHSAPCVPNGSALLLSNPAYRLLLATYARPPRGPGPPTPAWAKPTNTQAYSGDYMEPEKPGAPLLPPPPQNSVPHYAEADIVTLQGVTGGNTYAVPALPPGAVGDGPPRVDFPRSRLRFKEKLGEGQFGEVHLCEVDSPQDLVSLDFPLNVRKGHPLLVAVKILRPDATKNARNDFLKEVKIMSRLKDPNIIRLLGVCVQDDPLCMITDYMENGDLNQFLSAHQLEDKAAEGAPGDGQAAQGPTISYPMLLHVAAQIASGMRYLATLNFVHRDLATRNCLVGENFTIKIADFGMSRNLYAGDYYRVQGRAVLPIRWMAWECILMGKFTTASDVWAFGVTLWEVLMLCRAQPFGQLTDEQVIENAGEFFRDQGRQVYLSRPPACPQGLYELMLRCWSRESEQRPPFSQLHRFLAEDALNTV

[34] = biological target: Bone morphogenetic protein receptor type-1B (Homo sapiens) (UniProt O00238)
[35] = biological target: Discoidin domain-containing receptor 2 (Homo sapiens) (UniProt Q16832)
[36] = biological target: Cyclin-dependent kinase-like 2 (Homo sapiens) (UniProt Q92772)
[37] = biological target: Mast/stem cell growth factor receptor Kit (Homo sapiens) (UniProt P10721)
Sequence of Mast/stem cell growth factor receptor Kit (Homo sapiens) (P10721 whole entry): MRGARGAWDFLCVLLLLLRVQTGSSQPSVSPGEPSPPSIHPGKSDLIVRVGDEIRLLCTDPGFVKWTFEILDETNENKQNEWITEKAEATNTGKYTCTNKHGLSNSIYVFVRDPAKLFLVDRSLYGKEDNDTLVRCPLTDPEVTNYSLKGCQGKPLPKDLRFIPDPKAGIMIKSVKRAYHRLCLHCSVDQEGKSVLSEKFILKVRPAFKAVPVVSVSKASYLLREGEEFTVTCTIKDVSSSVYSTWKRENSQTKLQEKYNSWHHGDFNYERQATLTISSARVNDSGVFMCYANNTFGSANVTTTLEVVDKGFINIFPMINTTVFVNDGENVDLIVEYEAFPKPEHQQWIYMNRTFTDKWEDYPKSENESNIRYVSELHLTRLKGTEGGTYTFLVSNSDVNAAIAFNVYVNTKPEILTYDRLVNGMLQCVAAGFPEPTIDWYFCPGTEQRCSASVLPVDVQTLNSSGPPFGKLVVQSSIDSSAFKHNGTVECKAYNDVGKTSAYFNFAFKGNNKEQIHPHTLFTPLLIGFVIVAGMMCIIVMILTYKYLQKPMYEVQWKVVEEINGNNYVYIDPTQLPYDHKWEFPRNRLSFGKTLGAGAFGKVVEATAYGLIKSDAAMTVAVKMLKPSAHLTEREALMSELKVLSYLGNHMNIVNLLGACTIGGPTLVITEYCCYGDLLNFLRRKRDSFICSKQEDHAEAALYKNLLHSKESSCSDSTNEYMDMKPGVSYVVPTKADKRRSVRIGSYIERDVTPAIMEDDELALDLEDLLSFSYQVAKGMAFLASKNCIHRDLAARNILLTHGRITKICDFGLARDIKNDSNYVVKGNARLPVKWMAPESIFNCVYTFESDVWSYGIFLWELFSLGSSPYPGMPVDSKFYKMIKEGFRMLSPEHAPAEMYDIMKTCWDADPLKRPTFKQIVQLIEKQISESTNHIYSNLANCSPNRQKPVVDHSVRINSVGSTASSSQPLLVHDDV

[38] = biological target: Serine/threonine-protein kinase Nek3 (Homo sapiens) (UniProt P51956)
[39] = biological target: BDNF/NT-3 growth factors receptor (Homo sapiens) (UniProt Q16620)
[40] = biological target: Myotonin-protein kinase (Homo sapiens) (UniProt Q09013)
Sequence of Myotonin-protein kinase (Homo sapiens) (Q09013 whole entry): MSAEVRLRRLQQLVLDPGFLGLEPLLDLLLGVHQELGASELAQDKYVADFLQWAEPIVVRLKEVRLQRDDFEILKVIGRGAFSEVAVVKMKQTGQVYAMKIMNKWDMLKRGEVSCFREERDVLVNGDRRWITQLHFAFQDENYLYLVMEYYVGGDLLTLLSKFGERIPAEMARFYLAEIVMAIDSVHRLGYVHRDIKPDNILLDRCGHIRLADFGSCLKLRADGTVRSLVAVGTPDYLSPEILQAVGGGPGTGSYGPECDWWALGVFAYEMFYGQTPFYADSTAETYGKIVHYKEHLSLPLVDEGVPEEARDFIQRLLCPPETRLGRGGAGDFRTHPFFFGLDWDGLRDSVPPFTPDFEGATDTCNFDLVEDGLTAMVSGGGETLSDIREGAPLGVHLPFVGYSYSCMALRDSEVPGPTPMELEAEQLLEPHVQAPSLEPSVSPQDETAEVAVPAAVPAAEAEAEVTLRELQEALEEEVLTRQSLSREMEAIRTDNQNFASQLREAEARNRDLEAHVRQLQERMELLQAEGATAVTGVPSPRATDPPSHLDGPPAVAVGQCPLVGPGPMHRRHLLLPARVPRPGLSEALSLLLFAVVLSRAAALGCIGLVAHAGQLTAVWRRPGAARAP

[41] = biological target: Mitogen-activated protein kinase kinase kinase 10 (Homo sapiens) (UniProt Q02779)
[42] = system: Mast/stem cell growth factor receptor Kit (Homo sapiens), P10721 [V559D,T670I]
Sequence of Mast/stem cell growth factor receptor Kit (Homo sapiens), P10721 [V559D,T670I] (P10721 whole entry V559D/T670I): as the sequence (P10721 whole entry) above, with V559D, T670I counted along it

[43] = biological target: Dual specificity protein kinase CLK3 (Homo sapiens) (UniProt P49761)
[44] = biological target: Phosphorylase b kinase regulatory subunit alpha, liver isoform (Homo sapiens) (UniProt P46019)
[45] = biological target: Serine/threonine-protein kinase 32C (Homo sapiens) (UniProt Q86UX6)
[46] = Compound concentration 100.0 nM
[47] = Compound concentration 1000.0 nM

Sequence of Serine/threonine-protein kinase LATS1 (Homo sapiens) (O95835 whole entry): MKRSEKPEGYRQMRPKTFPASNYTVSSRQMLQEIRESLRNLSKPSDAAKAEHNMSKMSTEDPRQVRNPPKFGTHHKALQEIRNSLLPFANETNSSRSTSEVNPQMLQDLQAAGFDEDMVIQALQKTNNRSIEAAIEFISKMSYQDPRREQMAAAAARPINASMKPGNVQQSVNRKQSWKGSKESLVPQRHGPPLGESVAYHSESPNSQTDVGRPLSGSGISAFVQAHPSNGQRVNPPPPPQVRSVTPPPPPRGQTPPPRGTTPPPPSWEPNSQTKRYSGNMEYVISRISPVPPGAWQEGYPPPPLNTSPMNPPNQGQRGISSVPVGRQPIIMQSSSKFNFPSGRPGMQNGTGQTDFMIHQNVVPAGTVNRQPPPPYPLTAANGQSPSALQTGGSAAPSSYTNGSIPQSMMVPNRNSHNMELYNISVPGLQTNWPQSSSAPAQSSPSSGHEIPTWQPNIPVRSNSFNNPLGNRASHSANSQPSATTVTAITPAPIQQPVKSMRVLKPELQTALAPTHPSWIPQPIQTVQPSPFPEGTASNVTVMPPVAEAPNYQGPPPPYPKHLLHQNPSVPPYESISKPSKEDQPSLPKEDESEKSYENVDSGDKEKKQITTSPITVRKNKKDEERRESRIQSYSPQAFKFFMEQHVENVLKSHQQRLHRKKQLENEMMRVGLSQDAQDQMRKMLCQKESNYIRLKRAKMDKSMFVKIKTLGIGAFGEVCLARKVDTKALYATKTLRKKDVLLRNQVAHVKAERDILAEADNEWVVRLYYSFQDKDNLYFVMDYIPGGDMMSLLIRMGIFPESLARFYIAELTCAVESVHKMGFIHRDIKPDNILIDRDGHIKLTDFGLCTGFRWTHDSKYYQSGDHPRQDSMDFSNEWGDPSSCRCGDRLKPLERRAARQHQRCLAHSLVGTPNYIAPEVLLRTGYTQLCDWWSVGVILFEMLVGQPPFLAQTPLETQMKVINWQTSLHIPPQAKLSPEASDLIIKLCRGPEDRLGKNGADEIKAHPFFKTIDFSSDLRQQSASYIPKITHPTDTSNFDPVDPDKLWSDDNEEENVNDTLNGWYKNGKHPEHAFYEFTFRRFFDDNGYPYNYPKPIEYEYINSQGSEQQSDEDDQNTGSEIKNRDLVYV

Cc1cc(C)c(-n2ccn3nc(-c4cccnc4)cc23)cc1NC(=O)c1cc(C#N)cc(S(F)(F)(F)(F)F)c1 [BAY-826]
residual activity [1, 46]: 100% | residual activity [2, 46]: 83.9% | residual activity [3, 46]: 86.3% | residual activity [4, 46]: 92.5% | residual activity [5, 46]: 79.6% | residual activity [6, 46]: 83.8% | residual activity [7, 46]: 100% | residual activity [8, 46]: 97.4% | residual activity [9, 46]: 64.7% | residual activity [10, 46]: 60.4% | residual activity [11, 46]: 82.2% | residual activity [12, 46]: 62.9% | residual activity [13, 46]: 97.9% | residual activity [14, 46]: 57.7% | residual activity [15, 46]: 69% | residual activity [16, 46]: 100% | residual activity [17, 46]: 77.4% | residual activity [18, 46]: 80.2% | inhibition [19]: 34.5% | residual activity [20, 46]: 83.6% | residual activity [21, 46]: 80.4% | residual activity [22, 46]: 85.9% | residual activity [23, 46]: 93.4% | residual activity [24, 46]: 100% | residual activity [25, 46]: 67.4% | residual activity [26, 46]: 100% | residual activity [27, 46]: 74.8% | residual activity [28, 46]: 86.1% | residual activity [29, 46]: 100% | residual activity [30, 46]: 100% | residual activity [31, 46]: 91.1% | residual activity [32, 46]: 98.8% | EC50 [33]: 1.5 nM (active) | IC50 [33]: 0.9 nM (active) | residual activity [34, 46]: 72.3% | residual activity [35, 46]: 1.8% | residual activity [36, 46]: 75.6% | residual activity [37, 46]: 44.5% | residual activity [38, 46]: 70.7% | residual activity [39, 46]: 54.8% | residual activity [40, 46]: 95.6% | residual activity [41, 46]: 100% | residual activity [42, 46]: 67.9% | residual activity [43, 46]: 87.7% | residual activity [44, 46]: 78.3% | residual activity [45, 46]: 83.4%

Cc1cc(NC(=O)c2cccc(S(F)(F)(F)(F)F)c2)cc(-n2ccn3nc(-c4cccnc4)cc23)c1 [BAY-309]
residual activity [1, 47]: 94.3% | residual activity [2, 47]: 100% | residual activity [3, 47]: 50.4% | residual activity [4, 47]: 100% | residual activity [5, 47]: 100% | residual activity [6, 47]: 29.4% | residual activity [7, 47]: 100% | residual activity [8, 47]: 100% | residual activity [9, 47]: 78.6% | residual activity [10, 47]: 77.9% | residual activity [11, 47]: 100% | residual activity [12, 47]: 34.1% | residual activity [13, 47]: 100% | residual activity [14, 47]: 91.8% | residual activity [15, 47]: 100% | residual activity [16, 47]: 95.8% | residual activity [17, 47]: 100% | residual activity [18, 47]: 97% | inhibition [19]: 66% | residual activity [20, 47]: 100% | residual activity [21, 47]: 100% | residual activity [22, 47]: 85.4% | residual activity [23, 47]: 98.1% | residual activity [24, 47]: 100% | residual activity [25, 47]: 100% | residual activity [26, 47]: 100% | residual activity [27, 47]: 40.2% | residual activity [28, 47]: 100% | residual activity [29, 47]: 100% | residual activity [30, 47]: 80.4% | residual activity [31, 47]: 100% | residual activity [32, 47]: 82% | EC50 [33]: 200 nM (not active) | IC50 [33]: 340 nM (not active) | residual activity [34, 47]: 100% | residual activity [35, 47]: 18.2% | residual activity [36, 47]: 100% | residual activity [37, 47]: 89.5% | residual activity [38, 47]: 50.5% | residual activity [39, 47]: 40% | residual activity [40, 47]: 100% | residual activity [41, 47]: 100% | residual activity [42, 47]: 91.3% | residual activity [43, 47]: 100% | residual activity [44, 47]: 100% | residual activity [45, 47]: 75.8%
